Data from ChEMBL document CHEMBL4507285, “Data for DCP probe MRL-SYKi” (2021).

What was measured:
[1] = target: Mitogen-activated protein kinase kinase kinase 2 (Homo sapiens) (UniProt Q9Y2U5); conditions: Compound concentration 100.0 nM
[2] = target: Dual specificity protein kinase CLK3 (Homo sapiens) (UniProt P49761); conditions: Compound concentration 100.0 nM
[3] = target: Tyrosine-protein kinase SYK (Homo sapiens, UniProt P43405); conditions: Compound concentration 100.0 nM
[4] = target: Hormonally up-regulated neu tumor-associated kinase (Homo sapiens) (UniProt P57058); conditions: Compound concentration 100.0 nM
[5] = target: Tyrosine-protein kinase Tec (Homo sapiens) (UniProt P42680); conditions: Compound concentration 100.0 nM
[6] = target: Insulin receptor-related protein (Homo sapiens) (UniProt P14616); conditions: Compound concentration 100.0 nM
[7] = target: MAP kinase-interacting serine/threonine-protein kinase 2 (Homo sapiens) (UniProt Q9HBH9); conditions: Compound concentration 100.0 nM
[8] = target: Alpha-2A adrenergic receptor (Homo sapiens) (UniProt P08913); conditions: Compound concentration 10.0 uM
[9] = target: Calcium-dependent protein kinase 1 (Plasmodium falciparum) (UniProt P62344); conditions: Compound concentration 100.0 nM
[10] = target: cAMP-dependent protein kinase catalytic subunit alpha (Homo sapiens) (UniProt P17612); conditions: Compound concentration 100.0 nM
[11] = target: ALK tyrosine kinase receptor (Homo sapiens) (UniProt Q9UM73); conditions: Compound concentration 100.0 nM
[12] = target: Non-receptor tyrosine-protein kinase TYK2 (Homo sapiens) (UniProt P29597); conditions: Compound concentration 100.0 nM
[13] = target: Serine/threonine-protein kinase Nek10 (Homo sapiens) (UniProt Q6ZWH5); conditions: Compound concentration 100.0 nM
[14] = target: AP2-associated protein kinase 1 (Homo sapiens) (UniProt Q2M2I8); conditions: Compound concentration 100.0 nM
[15] = target: Mitogen-activated protein kinase 1 (Homo sapiens) (UniProt P28482); conditions: Compound concentration 100.0 nM
[16] = target: Protein kinase C eta type (Homo sapiens) (UniProt P24723); conditions: Compound concentration 100.0 nM
[17] = test system: Hepatocyte growth factor receptor (Homo sapiens), P08581 [M1250T]; conditions: Compound concentration 100.0 nM
[18] = target: Interleukin-1 receptor-associated kinase 4 (Homo sapiens) (UniProt Q9NWZ3); conditions: Compound concentration 100.0 nM
[19] = target: Mitogen-activated protein kinase kinase kinase 14 (Homo sapiens) (UniProt Q99558); conditions: Compound concentration 100.0 nM
[20] = target: Cyclin-dependent kinase 18 (Homo sapiens) (UniProt Q07002); conditions: Compound concentration 100.0 nM
[21] = target: Aurora kinase B (Homo sapiens) (UniProt Q96GD4); conditions: Compound concentration 100.0 nM
[22] = target: Ephrin type-A receptor 2 (Homo sapiens) (UniProt P29317); conditions: Compound concentration 100.0 nM
[23] = test system: Epidermal growth factor receptor (Homo sapiens), P00533 [UNDEFINED MUTATION]; conditions: Compound concentration 100.0 nM
[24] = target: Tyrosine-protein kinase receptor UFO (Homo sapiens) (UniProt P30530); conditions: Compound concentration 100.0 nM
[25] = test system: Tyrosine-protein kinase ABL1 (Homo sapiens), P00519 [F317I]; conditions: Compound concentration 100.0 nM
[26] = target: NUAK family SNF1-like kinase 1 (Homo sapiens) (UniProt O60285); conditions: Compound concentration 100.0 nM
[27] = target: Ephrin type-A receptor 7 (Homo sapiens) (UniProt Q15375); conditions: Compound concentration 100.0 nM
[28] = target: D(3) dopamine receptor (Homo sapiens) (UniProt P35462); conditions: Compound concentration 10.0 uM
[29] = target: Homeodomain-interacting protein kinase 2 (Homo sapiens) (UniProt Q9H2X6); conditions: Compound concentration 100.0 nM
[30] = target: Activin receptor type-2B (Homo sapiens) (UniProt Q13705); conditions: Compound concentration 100.0 nM
[31] = target: Dual specificity mitogen-activated protein kinase kinase 1 (Homo sapiens) (UniProt Q02750); conditions: Compound concentration 100.0 nM
[32] = test system: Serine/threonine-protein kinase B-raf (Homo sapiens), P15056 [V600E]; conditions: Compound concentration 100.0 nM
[33] = target: Alpha-2B adrenergic receptor (Homo sapiens) (UniProt P18089); conditions: Compound concentration 10.0 uM
[34] = target: Serine/threonine-protein kinase PLK2 (Homo sapiens) (UniProt Q9NYY3); conditions: Compound concentration 100.0 nM
[35] = target: Mitogen-activated protein kinase 11 (Homo sapiens) (UniProt Q15759); conditions: Compound concentration 100.0 nM
[36] = target: Testis-specific serine/threonine-protein kinase 1 (Homo sapiens) (UniProt Q9BXA7); conditions: Compound concentration 100.0 nM
[37] = target: Mitogen-activated protein kinase kinase kinase 3 (Homo sapiens) (UniProt Q99759); conditions: Compound concentration 100.0 nM
[38] = target: Serine/threonine-protein kinase haspin (Homo sapiens) (UniProt Q8TF76); conditions: Compound concentration 100.0 nM
[39] = target: SRSF protein kinase 3 (Homo sapiens) (UniProt Q9UPE1); conditions: Compound concentration 100.0 nM
[40] = target: Tyrosine-protein kinase TXK (Homo sapiens) (UniProt P42681); conditions: Compound concentration 100.0 nM
[41] = test system: Epidermal growth factor receptor (Homo sapiens), P00533 [UNDEFINED MUTATION]; conditions: Compound concentration 100.0 nM; remark: listed apart in the source
[42] = target: Interferon-induced, double-stranded RNA-activated protein kinase (Homo sapiens) (UniProt P19525); conditions: Compound concentration 100.0 nM
[43] = target: Serine/threonine-protein kinase BRSK2 (Homo sapiens) (UniProt Q8IWQ3); conditions: Compound concentration 100.0 nM
[44] = target: Myosin light chain kinase 2, skeletal/cardiac muscle (Homo sapiens) (UniProt Q9H1R3); conditions: Compound concentration 100.0 nM
[45] = test system: Epidermal growth factor receptor (Homo sapiens), P00533 [UNDEFINED MUTATION]; conditions: Compound concentration 100.0 nM; remark: listed apart in the source

Chain of Epidermal growth factor receptor (Homo sapiens), P00533 [UNDEFINED MUTATION] (P00533 whole entry, looked up, change not shown): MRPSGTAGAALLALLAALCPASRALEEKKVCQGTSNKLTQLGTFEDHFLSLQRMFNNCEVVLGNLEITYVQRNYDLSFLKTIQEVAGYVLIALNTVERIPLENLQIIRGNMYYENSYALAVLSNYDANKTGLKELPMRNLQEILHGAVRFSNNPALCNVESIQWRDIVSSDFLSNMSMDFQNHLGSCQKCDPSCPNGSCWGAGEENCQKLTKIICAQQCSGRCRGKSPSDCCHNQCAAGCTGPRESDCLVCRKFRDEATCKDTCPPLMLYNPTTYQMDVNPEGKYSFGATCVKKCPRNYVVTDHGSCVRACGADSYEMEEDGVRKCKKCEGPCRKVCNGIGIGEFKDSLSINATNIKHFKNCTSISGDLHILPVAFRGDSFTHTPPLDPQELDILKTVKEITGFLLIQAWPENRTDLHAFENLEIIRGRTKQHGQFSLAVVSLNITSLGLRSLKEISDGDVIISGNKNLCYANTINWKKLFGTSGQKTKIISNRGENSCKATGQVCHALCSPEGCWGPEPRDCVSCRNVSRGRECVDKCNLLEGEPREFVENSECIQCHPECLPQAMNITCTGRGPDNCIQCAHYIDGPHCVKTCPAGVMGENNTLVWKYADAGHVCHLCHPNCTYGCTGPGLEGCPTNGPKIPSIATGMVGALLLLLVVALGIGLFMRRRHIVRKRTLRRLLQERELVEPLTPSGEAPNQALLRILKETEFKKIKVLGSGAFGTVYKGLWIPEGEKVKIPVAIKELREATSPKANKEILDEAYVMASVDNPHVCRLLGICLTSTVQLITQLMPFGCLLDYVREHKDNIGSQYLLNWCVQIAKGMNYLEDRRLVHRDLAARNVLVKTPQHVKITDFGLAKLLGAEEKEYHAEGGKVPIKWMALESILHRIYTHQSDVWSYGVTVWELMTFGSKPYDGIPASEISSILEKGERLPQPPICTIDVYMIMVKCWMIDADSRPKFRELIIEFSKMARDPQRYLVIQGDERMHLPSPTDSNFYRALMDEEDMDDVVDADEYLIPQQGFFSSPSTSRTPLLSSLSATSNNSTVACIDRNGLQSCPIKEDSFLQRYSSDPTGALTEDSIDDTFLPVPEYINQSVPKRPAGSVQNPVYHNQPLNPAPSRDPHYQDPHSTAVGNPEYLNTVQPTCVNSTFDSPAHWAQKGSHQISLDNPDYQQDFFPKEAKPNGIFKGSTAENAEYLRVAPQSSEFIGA
Chain of Mitogen-activated protein kinase 1 (Homo sapiens) (P28482 whole entry): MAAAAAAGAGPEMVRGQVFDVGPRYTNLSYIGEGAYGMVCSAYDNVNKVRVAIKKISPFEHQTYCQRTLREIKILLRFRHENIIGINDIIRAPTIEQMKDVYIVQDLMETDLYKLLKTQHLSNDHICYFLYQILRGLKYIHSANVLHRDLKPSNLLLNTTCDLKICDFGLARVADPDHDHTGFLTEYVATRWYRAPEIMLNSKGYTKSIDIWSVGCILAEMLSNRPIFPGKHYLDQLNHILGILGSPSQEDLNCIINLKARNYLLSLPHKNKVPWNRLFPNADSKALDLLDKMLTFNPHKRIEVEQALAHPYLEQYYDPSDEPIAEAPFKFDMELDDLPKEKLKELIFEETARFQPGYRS
Chain of Tyrosine-protein kinase ABL1 (Homo sapiens), P00519 [F317I] (P00519 whole entry F317I): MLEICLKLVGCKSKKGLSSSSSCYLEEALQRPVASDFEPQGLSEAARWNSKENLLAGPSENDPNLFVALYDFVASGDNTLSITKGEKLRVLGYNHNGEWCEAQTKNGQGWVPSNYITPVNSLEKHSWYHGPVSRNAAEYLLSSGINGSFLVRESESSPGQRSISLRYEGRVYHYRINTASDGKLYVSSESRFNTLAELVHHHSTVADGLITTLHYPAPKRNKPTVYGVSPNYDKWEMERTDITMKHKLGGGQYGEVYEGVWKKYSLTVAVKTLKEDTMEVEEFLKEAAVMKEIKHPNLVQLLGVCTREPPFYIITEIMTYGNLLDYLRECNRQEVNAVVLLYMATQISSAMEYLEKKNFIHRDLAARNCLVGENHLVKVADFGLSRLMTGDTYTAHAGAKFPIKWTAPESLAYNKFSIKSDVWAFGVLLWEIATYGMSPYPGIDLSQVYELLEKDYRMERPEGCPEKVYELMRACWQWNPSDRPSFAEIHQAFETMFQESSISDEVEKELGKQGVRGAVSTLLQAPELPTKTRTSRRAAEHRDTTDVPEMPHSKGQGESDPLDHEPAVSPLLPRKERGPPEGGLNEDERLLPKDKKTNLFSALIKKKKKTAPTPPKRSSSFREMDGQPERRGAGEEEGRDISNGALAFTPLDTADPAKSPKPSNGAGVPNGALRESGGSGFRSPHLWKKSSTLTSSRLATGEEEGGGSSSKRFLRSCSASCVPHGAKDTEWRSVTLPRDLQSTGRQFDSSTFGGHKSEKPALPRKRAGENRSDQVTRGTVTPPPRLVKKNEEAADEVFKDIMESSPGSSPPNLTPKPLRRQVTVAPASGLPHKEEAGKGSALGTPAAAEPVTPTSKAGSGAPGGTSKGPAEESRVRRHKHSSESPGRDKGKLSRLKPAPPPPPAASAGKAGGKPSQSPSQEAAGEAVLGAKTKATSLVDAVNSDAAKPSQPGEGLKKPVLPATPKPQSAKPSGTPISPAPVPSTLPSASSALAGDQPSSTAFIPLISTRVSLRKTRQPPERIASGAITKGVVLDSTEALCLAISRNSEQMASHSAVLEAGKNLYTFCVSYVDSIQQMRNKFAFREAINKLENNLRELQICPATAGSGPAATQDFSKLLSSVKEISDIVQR
Chain of Mitogen-activated protein kinase 11 (Homo sapiens) (Q15759 whole entry): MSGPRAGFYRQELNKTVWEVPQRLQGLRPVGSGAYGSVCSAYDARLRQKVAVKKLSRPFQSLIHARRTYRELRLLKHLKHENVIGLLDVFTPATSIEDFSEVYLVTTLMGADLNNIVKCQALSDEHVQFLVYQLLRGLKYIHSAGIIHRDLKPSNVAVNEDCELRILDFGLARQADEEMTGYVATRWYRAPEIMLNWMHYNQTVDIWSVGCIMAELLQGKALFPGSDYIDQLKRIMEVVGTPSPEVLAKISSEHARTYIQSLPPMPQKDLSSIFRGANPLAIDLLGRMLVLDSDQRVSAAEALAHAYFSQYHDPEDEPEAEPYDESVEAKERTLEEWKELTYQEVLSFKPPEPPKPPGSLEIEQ
Chain of Dual specificity mitogen-activated protein kinase kinase 1 (Homo sapiens) (Q02750 whole entry): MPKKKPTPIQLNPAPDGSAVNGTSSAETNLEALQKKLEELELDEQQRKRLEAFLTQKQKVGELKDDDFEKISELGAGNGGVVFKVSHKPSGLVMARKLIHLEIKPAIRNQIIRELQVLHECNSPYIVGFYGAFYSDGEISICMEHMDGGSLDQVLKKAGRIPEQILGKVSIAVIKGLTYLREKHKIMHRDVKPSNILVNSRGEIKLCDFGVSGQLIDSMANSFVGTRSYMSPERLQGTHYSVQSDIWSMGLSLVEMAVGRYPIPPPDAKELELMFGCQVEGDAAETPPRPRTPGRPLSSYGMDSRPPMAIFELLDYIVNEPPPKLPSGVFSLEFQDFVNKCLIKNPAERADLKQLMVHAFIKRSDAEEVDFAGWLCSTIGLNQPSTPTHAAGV
Chain of Mitogen-activated protein kinase kinase kinase 14 (Homo sapiens) (Q99558 whole entry, looked up): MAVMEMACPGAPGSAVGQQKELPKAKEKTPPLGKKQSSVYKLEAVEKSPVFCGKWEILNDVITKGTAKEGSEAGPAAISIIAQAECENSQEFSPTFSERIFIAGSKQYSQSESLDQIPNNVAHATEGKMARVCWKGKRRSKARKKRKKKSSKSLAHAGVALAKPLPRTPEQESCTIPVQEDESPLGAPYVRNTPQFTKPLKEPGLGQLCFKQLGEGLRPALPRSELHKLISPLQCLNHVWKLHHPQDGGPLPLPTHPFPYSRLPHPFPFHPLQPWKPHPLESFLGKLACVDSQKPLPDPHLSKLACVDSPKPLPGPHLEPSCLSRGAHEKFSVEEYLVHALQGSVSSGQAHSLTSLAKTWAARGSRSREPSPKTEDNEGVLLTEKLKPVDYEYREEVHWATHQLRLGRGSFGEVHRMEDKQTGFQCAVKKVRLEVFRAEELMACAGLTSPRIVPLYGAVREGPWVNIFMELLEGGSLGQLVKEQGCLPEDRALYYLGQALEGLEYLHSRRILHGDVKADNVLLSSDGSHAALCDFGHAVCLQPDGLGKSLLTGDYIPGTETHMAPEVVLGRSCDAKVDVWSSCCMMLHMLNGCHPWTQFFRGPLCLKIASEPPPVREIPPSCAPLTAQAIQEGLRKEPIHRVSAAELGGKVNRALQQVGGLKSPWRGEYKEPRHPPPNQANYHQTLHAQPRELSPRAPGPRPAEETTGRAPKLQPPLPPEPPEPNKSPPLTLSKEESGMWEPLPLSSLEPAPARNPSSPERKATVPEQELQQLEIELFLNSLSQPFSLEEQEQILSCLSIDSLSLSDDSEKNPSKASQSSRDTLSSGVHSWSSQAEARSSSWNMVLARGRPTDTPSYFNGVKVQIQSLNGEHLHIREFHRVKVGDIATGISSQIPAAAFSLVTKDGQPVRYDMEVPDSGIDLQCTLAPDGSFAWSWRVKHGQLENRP
Chain of Activin receptor type-2B (Homo sapiens) (Q13705 whole entry): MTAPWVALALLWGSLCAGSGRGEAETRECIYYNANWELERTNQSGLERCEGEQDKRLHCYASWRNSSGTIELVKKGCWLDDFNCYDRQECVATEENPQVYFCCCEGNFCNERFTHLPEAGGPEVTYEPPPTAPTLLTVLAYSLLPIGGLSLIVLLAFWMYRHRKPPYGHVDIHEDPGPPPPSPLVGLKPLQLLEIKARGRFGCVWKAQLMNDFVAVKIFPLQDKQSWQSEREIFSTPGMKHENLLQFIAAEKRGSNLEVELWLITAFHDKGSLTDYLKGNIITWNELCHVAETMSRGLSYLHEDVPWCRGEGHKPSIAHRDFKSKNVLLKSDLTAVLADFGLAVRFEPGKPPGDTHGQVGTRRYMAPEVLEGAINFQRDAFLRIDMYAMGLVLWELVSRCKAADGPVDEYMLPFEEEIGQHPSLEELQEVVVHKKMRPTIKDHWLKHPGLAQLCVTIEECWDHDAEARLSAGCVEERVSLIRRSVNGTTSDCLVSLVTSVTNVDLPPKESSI

Cc1ccc(-c2cnc([C@@]3(O)CC[C@H](C(=O)O)C(C)(C)C3)s2)cc1Nc1cccc(C(F)(F)F)n1 [MRL-SYKi-NC]
inactive: residual activity [1] 100% | residual activity [2] 76% | residual activity [3] 90% | residual activity [4] 96.2% | residual activity [5] 91.2% | residual activity [6] 86.1% | residual activity [7] 100% | inhibition [8] 34.5% | residual activity [9] 90.1% | residual activity [10] 100% | residual activity [11] 100% | residual activity [12] 100% | residual activity [13] 97.3% | residual activity [14] 85.7% | residual activity [15] 100% | residual activity [16] 74.6% | residual activity [17] 89% | residual activity [19] 100% | residual activity [20] 100% | residual activity [21] 93.1% | residual activity [22] 100% | residual activity [23] 67.1% | residual activity [24] 100% | residual activity [25] 84.1% | residual activity [26] 100% | residual activity [27] 94.2% | inhibition [28] -8.44% | residual activity [29] 73.5% | residual activity [30] 100% | residual activity [31] 95% | residual activity [32] 100% | inhibition [33] 27% | residual activity [34] 100% | residual activity [35] 98.7% | residual activity [36] 100% | residual activity [37] 82.5% | residual activity [39] 100% | residual activity [40] 88.4% | residual activity [41] 100% | residual activity [42] 75.8% | residual activity [43] 60.7% | residual activity [44] 90.9% | residual activity [45] 100%
active: residual activity [18] 48.8% | residual activity [38] 47%

Cc1cc(Nc2nccc(C)n2)cc(-c2cnc([C@@]3(O)CC[C@H](C(=O)O)C(C)(C)C3)s2)c1 [MRL-SYKi]
active: residual activity [3] 0.9%
inactive: residual activity [1] 100% | residual activity [2] 100% | residual activity [4] 100% | residual activity [5] 75.2% | residual activity [6] 100% | residual activity [7] 74.7% | inhibition [8] -2.14% | residual activity [9] 100% | residual activity [10] 100% | residual activity [11] 93.8% | residual activity [12] 68.6% | residual activity [13] 53.1% | residual activity [14] 100% | residual activity [15] 100% | residual activity [16] 97.5% | residual activity [17] 93.7% | residual activity [18] 100% | residual activity [19] 89% | residual activity [20] 100% | residual activity [21] 89% | residual activity [22] 100% | residual activity [23] 67.7% | residual activity [24] 100% | residual activity [25] 100% | residual activity [26] 100% | residual activity [27] 81.3% | inhibition [28] -5.53% | residual activity [29] 83.5% | residual activity [30] 82.8% | residual activity [31] 100% | residual activity [32] 100% | inhibition [33] -7.14% | residual activity [34] 100% | residual activity [35] 100% | residual activity [36] 100% | residual activity [37] 100% | residual activity [38] 90.8% | residual activity [39] 100% | residual activity [40] 64% | residual activity [41] 100% | residual activity [42] 77.4% | residual activity [43] 100% | residual activity [44] 100% | residual activity [45] 74%
